These results are taken from ChEMBL document CHEMBL1201862, “PubChem BioAssay data set” (2004).

Common to all, as to test: NCI-60 cell line screen, 48 h
Assay [1] concerns UACC-62.
Assay [2] relates to OVCAR-8.
Assay [3] deals with RPMI-8226.
Assay [4] deals with HCC 2998.
The subject of assay [5] is CAKI-1.
Assay [6] concerns M19-MEL.
Assay [7] concerns MDA-N.
Assay [8] has as its system HT-29.
Assay [9] concerns HCT-116.
The subject of assay [10] is Hs-578T.
In assay [11] the test system is SW-620.
Assay [12] concerns TK-10.
The test system of assay [13] is K562.
The subject of assay [14] is MDA-MB-231.
Assay [15] has as its system SR.
Assay [16] has as its system NCI-H460.
The test system of assay [17] is UO-31.
Assay [18] concerns HOP-92.
Assay [19] has as its system SNB-19.
Assay [20] deals with IGROV-1.

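A five-concentration, 48-hour dose response in 96-well plates underlies each endpoint, interpolated linearly between surrounding concentrations. GI50 = concentration required for 50% inhibition of growth.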 Activity calls are given as the source filed them. Cut-off read from the data, not from the text of the source: active = GI50 up to about 1.1 µM and inactive = higher. Where a SMILES comes first, the peptide text is derived from it. [ ]: non-standard residue; d: D form. Phe(F5) = N[CH](Cc1c(F)c(F)c(F)c(F)c1F)C(=O)O

Take `CCN(CC)CCNc1c2ccccc2nc2cccc([N+](=O)[O-])c12`: the GI50 is 0.0143 µM (active) in assay [1]; 0.0177 µM (active) in assay [2]; 0.00659 µM (active) in [3]; 0.0151 µM (active) in assay [4]; 0.0158 µM (active) in [5]; 0.0352 µM (active) in [6]. For the same compound, the GI50 was 0.00179 µM (active) in [7]; 0.0122 µM (active) in assay [8]; 0.00676 µM (active) in assay [9]; 0.017 µM (active) in assay [10]; 0.0116 µM (active) in assay [11]; 0.0288 µM (active) in assay [12]. The GI50 in assay [13] is 0.0157 µM (active); in assay [14], 0.00136 µM (active); in assay [15], 0.00434 µM (active); in assay [16] it was 0.00622 µM (active); in assay [17], 0.0198 µM (active); in assay [18], 0.0146 µM (active). Also, the GI50 is 0.0186 µM (active) in assay [19] and 0.0182 µM (active) in [20].
For the compound `O=C(CNc1ccc2c(=S)c3ccccc3[nH]c2c1)Nc1ccccc1-c1ccccc1NC(=O)CNc1ccc2c(=S)c3ccccc3[nH]c2c1`, the GI50 in assay [1] was 18.2 µM (inactive); in assay [2], 23.9 µM (inactive); in [3] it was 8.75 µM (inactive); in assay [4], 15.1 µM (inactive); in assay [5], 30.1 µM (inactive); in [6], > 39.2 µM (inactive). Besides, the GI50 in assay [7] was 18.1 µM (inactive); in assay [8] it was 19.7 µM (inactive); in assay [9] it was 18.5 µM (inactive); in assay [10] it was 29.2 µM (inactive); in [11], 18.4 µM (inactive); in assay [12] it was 26.1 µM (inactive). The GI50 in [13] is 2.85 µM (inactive); in [14], 22.7 µM (inactive); in [15] it was 6.01 µM (inactive); in assay [16], 17.1 µM (inactive); in assay [17], 15.3 µM (inactive); in assay [18] it was 23 µM (inactive). Also, the GI50 in assay [19] was 17.2 µM (inactive); in [20] it was 20.2 µM (inactive).
Consider `CC(=O)Oc1ccc(C(c2ccc(OC(C)=O)cc2)c2ccccn2)cc1` [BISACODYL], for which the GI50 was 47.5 µM (inactive) in assay [1]; 1.4 µM (inactive) in [2]; 65.3 µM (inactive) in [3]; 2.9 µM (inactive) in [4]; > 100 µM (inactive) in assay [5]; 97.5 µM (inactive) in assay [6]. Also, the GI50 in assay [7] is > 87.9 µM (inactive); in assay [8] it was > 93.5 µM (inactive); in [9] it was 70.6 µM (inactive); in [10] it was 0.232 µM (active); in assay [11], > 100 µM (inactive); in assay [12] it was 81.3 µM (inactive). In addition, the GI50 was 59.4 µM (inactive) in assay [13]; 54.7 µM (inactive) in [14]; 64.4 µM (inactive) in assay [15]; 99.1 µM (inactive) in [16]; 69.7 µM (inactive) in assay [17]; 36.8 µM (inactive) in [18]. For the same compound, the GI50 is > 100 µM (inactive) in assay [19] and 71.6 µM (inactive) in assay [20].
As to `COC(=O)C(CC(C)C)NC(=O)C(Cc1c[nH]cn1)NC(=O)CNC(=O)C(NC(=O)C(C)NC(=O)C(Cc1c[nH]c2ccccc12)NC(=O)C(CCC(=O)O)NC(=O)C(N)Cc1c(F)c(F)c(F)c(F)c1F)C(C)C` (stereo not drawn) (H-[Phe(F5)]EWAVGHL-OMe; configuration not given here), the GI50 is > 12.5 µM (inactive) in [1]; > 12.5 µM (inactive) in [2]; > 12.5 µM (inactive) in assay [3]; > 12.5 µM (inactive) in [4]; > 12.5 µM (inactive) in assay [5]; > 100 µM (inactive) in assay [6]. Also, the GI50 in assay [7], in assay [8], in assay [9], in assay [10], in [11] and in assay [13] was > 12.5 µM (inactive) throughout. The GI50 in assay [14] is > 12.5 µM (inactive); in assay [15], > 12.5 µM (inactive); in [16], > 12.5 µM (inactive); in assay [17], > 12.5 µM (inactive); in assay [19], > 100 µM (inactive); in assay [20], > 12.5 µM (inactive).
